Laboratory results from patent publication US12655116B2, “Substituted isophthalic acid diamides” (Bayer Aktiengesellschaft, priority 2020, dated 2026).

Tests used:
[1] = test system: ALOMY; assay: Post-emergence herbicidal action against ALOMY; format: in vivo, Alopecurus myosuroides; settings: Alopecurus myosuroides, 504 h, dosage 20 g/ha, visual assessment about 3 weeks after treatment vs untreated controls
In short: (§1)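 A WP or EC formulation diluted in water with 0.2% wetting agent was sprayed at 600 to 800 l/ha onto one-leaf-stage plants grown in sandy loam. About 3 weeks later, action was rated visually in percent, 100% being dead plants.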

[2] = test system: PHBPU; assay: Post-emergence herbicidal action against PHBPU; format: in vivo, Pharbitis purpurea; settings: Ipomoea purpurea, 504 h; for pest or weed control at 5 g/ha: dosage 5 g/ha; for pest or weed control at 20 g/ha: dosage 20 g/ha
In short: as §1

[3] = test system: AVEFA; assay: Post-emergence herbicidal action against AVEFA; format: in vivo, Avena fatua; settings: Avena fatua, 504 h, visual assessment about 3 weeks after treatment, 100% = plants have died, 0% = like control plants
In short: as §1

[4] = test system: SETVI; assay: Post-emergence herbicidal action against SETVI; format: in vivo, Setaria viridis; settings: Setaria viridis, 504 h; for pest or weed control at 20 g/ha: dosage 20 g/ha
In short: as §1

[5] = test system: DIGSA; assay: Pre-emergence herbicidal action against DIGSA; format: in vivo, Digitaria sanguinalis; settings: Digitaria sanguinalis, 504 h; for pest or weed control at 20 g/ha: dosage 20 g/ha; for pest or weed control at 80 g/ha: dosage 80 g/ha
In short: (§2)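 Greenhouse pots of sandy loam held seeds covered with soil, onto which the compound was applied before emergence. An aqueous suspension or emulsion of WP or EC was used at 600 to 800 l/ha with 0.2% wetting agent. Percent damage was judged visually at 3 weeks.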

[6] = test system: AVEFA; assay: Pre-emergence herbicidal action against AVEFA; format: in vivo, Avena fatua; settings: Avena fatua, 504 h, pre-emergence
In short: as §2

[7] = test system: VERPE; assay: Pre-emergence herbicidal action against VERPE; format: in vivo, Veronica persica; settings: Veronica persica, 504 h, dosage 80 g/ha
In short: as §2

[8] = test system: ABUTH; assay: Pre-emergence herbicidal action against ABUTH; format: in vivo, Abutilon theophrasti; settings: Abutilon theophrasti, 504 h; for pest or weed control at 80 g/ha: scored visually after 3 weeks vs untreated controls (100% = plants have died, 0% = like control plants); for pest or weed control at 20 g/ha: dosage 20 g/ha, scored visually after 3 weeks vs untreated controls, 100% = plants have died, 0% = like control plants, read-out: Pre-emergence action against ABUTH (herbicidal activity in percent)
In short: as §2

[9] = test system: ECHCG; assay: Pre-emergence herbicidal action against ECHCG; format: in vivo, Echinochloa crus-galli; settings: Echinochloa crus-galli, 504 h
In short: as §2

[10] = test system: HORMU; assay: Pre-emergence herbicidal action against HORMU; format: in vivo, Hordeum murinum; settings: Hordeum murinum, 504 h; 80 g/ha, pre-emergence
Text: Seeds of monocotyledonous and dicotyledonous weed plants and crop plants are laid out in sandy loam soil in wood-fiber pots and covered with soil. The compounds of the invention, formulated in the form of wettable powders (WP) or as emulsion concentrates (EC), are then applied to the surface of the covering soil in the form of an aqueous suspension or emulsion at a water application rate equivalent to 600 to 800 l/ha, with addition of 0.2% wetting agent. After the treatment, the pots are placed in a greenhouse and kept under good growth conditions for the trial plants. The damage to the test plants is scored visually after a test period of 3 weeks by comparison with untreated controls (herbicidal activity in percent (%): 100% activity=the plants have died, 0% activity=like control plants). […] The tables below illustrate, in an illustrative manner, the post-emergence herbicidal action of the compounds of the invention, the herbicidal activity being stated in percent.

[11] = test system: ECHCG; assay: Post-emergence herbicidal action against ECHCG; format: in vivo, Echinochloa crus-galli; settings: Echinochloa crus-galli, 504 h; for pest or weed control at 20 g/ha: dosage 20 g/ha
In short: as §1

[12] = test system: AMARE; assay: Pre-emergence herbicidal action against AMARE; format: in vivo, Amaranthus retroflexus; settings: Amaranthus retroflexus, 504 h, scored visually after 3 weeks vs untreated controls, 100% = plants have died, 0% = like control plants
In short: as §2

[13] = test system: DIGSA; assay: Post-emergence herbicidal action against DIGSA; format: in vivo, Digitaria sanguinalis; settings: Digitaria sanguinalis, 504 h
In short: as §1

[14] = test system: SETVI; assay: Pre-emergence herbicidal action against SETVI; format: in vivo, Setaria viridis; settings: Setaria viridis, 504 h; for pest or weed control at 20 g/ha: dosage 20 g/ha; for pest or weed control at 80 g/ha: dosage 80 g/ha
In short: as §2

[15] = test system: AMARE; assay: Post-emergence herbicidal action against AMARE; format: in vivo, Amaranthus retroflexus; settings: Amaranthus retroflexus, 504 h, 20 g/ha, visual assessment about 3 weeks after treatment, 100% = plants have died, 0% = like control plants
In short: as §1

[16] = test system: STEME; assay: Pre-emergence herbicidal action against STEME; format: in vivo, Stellaria media; settings: Stellaria media, 504 h; for pest or weed control at 20 g/ha: dosage 20 g/ha; for pest or weed control at 80 g/ha: dosage 80 g/ha
In short: as §2

[17] = test system: MATIN; assay: Pre-emergence herbicidal action against MATIN; format: in vivo, Matricaria inodora; settings: Tripleurospermum inodorum, 504 h; for pest or weed control at 20 g/ha: dosage 20 g/ha; for pest or weed control at 80 g/ha: dosage 80 g/ha
In short: as §2

[18] = test system: VIOTR; assay: Pre-emergence herbicidal action against VIOTR; format: in vivo, Viola tricolor; settings: Viola tricolor, 504 h; for pest or weed control at 20 g/ha: dosage 20 g/ha; for pest or weed control at 80 g/ha: dosage 80 g/ha
In short: as §2

[19] = test system: MATIN; assay: Post-emergence herbicidal action against MATIN; format: in vivo, Matricaria inodora; settings: Tripleurospermum inodorum, 504 h, dosage 20 g/ha
In short: as §1

[20] = test system: STEME; assay: Post-emergence herbicidal action against STEME; format: in vivo, Stellaria media; settings: Stellaria media, 504 h; for pest or weed control at 5 g/ha: dosage 5 g/ha
In short: as §1

[21] = test system: ALOMY; assay: Pre-emergence herbicidal action against ALOMY; format: in vivo, Alopecurus myosuroides; settings: Alopecurus myosuroides, 504 h, pre-emergence; for pest or weed control at 80 g/ha: scored visually after 3 weeks vs untreated controls (100% = plants have died, 0% = like control plants); for pest or weed control at 20 g/ha: scored visually after 3 weeks, 100% = plants have died, 0% = like control plants
In short: as §2

[22] = test system: ABUTH; assay: Post-emergence herbicidal action against ABUTH; format: in vivo, Abutilon theophrasti; settings: Abutilon theophrasti, 504 h, visual assessment about 3 weeks after treatment vs untreated controls; for pest or weed control at 5 g/ha: dosage 5 g/ha; for pest or weed control at 20 g/ha: dosage 20 g/ha
In short: as §1

[23] = test system: LOLRI; assay: Pre-emergence herbicidal action against LOLRI; format: in vivo, Lolium rigidum; settings: Lolium rigidum, 504 h, 80 g/ha
In short: as §2

[24] = test system: VIOTR; assay: Post-emergence herbicidal action against VIOTR; format: in vivo, Viola tricolor; settings: Viola tricolor, 504 h
In short: as §1

[25] = test system: VERPE; assay: Post-emergence herbicidal action against VERPE; format: in vivo, Veronica persica; settings: Veronica persica, 504 h, 20 g/ha
In short: as §1

[26] = test system: POLCO; assay: Pre-emergence herbicidal action against POLCO; format: in vivo, Polygonum convolvulus; settings: Fallopia convolvulus, 504 h, dosage 80 g/ha
In short: as §2

`CCNC(=O)c1c(C(F)(F)F)ccc(C(=O)Nc2nnnn2C)c1Cl` [Example 1-130] was tested, and the pest or weed control at 20 g/ha [1] was 80%, the pest or weed control at 5 g/ha [2] was 80% and the pest or weed control at 20 g/ha [2] was 90%. For the same compound, the pest or weed control at 20 g/ha [3] was 80%, the pest or weed control at 20 g/ha [4] was 80% and the pest or weed control at 20 g/ha [5] was 100%. It also gave a pest or weed control at 80 g/ha [5] of 100%, a pest or weed control at 80 g/ha [6] of 100% and a pest or weed control at 20 g/ha ([6]; 20 g/ha, scored visually after 3 weeks, 100% = plants have died, 0% = like control plants) of 100%. The pest or weed control at 80 g/ha [7] was 80%, the pest or weed control at 80 g/ha [8] was 100% and the pest or weed control at 20 g/ha [8] was 100%. The pest or weed control at 20 g/ha ([9]; 20 g/ha) was 90%, the pest or weed control at 80 g/ha [9] was 100% and the pest or weed control at 80 g/ha [10] was 90%. It also gave a pest or weed control at 5 g/ha ([11]; dosage 5 g/ha) of 80%, a pest or weed control at 20 g/ha [11] of 80% and a pest or weed control at 20 g/ha [12] of 100%. It also gave a pest or weed control at 80 g/ha [12] of 100%, a pest or weed control at 5 g/ha [13] of 90% and a pest or weed control at 20 g/ha [13] of 90%. The pest or weed control at 20 g/ha [14] was 90%, the pest or weed control at 80 g/ha [14] was 100% and the pest or weed control at 20 g/ha [15] was 90%. The pest or weed control at 20 g/ha [16] was 100%, the pest or weed control at 80 g/ha [16] was 100% and the pest or weed control at 20 g/ha [17] was 100%. For the same compound, the pest or weed control at 80 g/ha [17] was 100%, the pest or weed control at 20 g/ha [18] was 100% and the pest or weed control at 80 g/ha [18] was 100%. For the same compound, the pest or weed control at 20 g/ha [19] was 80%, the pest or weed control at 20 g/ha [20] was 80% and the pest or weed control at 5 g/ha [20] was 80%. It also gave a pest or weed control at 80 g/ha [21] of 100%, a pest or weed control at 20 g/ha [21] of 100% and a pest or weed control at 5 g/ha [22] of 90%. For the same compound, the pest or weed control at 20 g/ha [22] was 90%, the pest or weed control at 80 g/ha [23] was 100% and the pest or weed control at 5 g/ha [24] was 90%. For the same compound, the pest or weed control at 20 g/ha [24] was 90%.
`CCNC(=O)c1c(C(F)(F)F)ccc(C(=O)Nc2nnnn2CC)c1Br` [Example 2-208] gave a pest or weed control at 20 g/ha [1] of 80%, a pest or weed control at 5 g/ha [2] of 80% and a pest or weed control at 20 g/ha [2] of 80%. For the same compound, the pest or weed control at 5 g/ha ([3]; 5 g/ha) was 80%, the pest or weed control at 20 g/ha [3] was 90% and the pest or weed control at 5 g/ha ([4]; dosage 5 g/ha) was 80%. For the same compound, the pest or weed control at 20 g/ha [4] was 80%, the pest or weed control at 20 g/ha [5] was 90% and the pest or weed control at 80 g/ha [5] was 100%. It also gave a pest or weed control at 80 g/ha [6] of 100%, a pest or weed control at 80 g/ha [8] of 100% and a pest or weed control at 20 g/ha [8] of 100%. The pest or weed control at 80 g/ha [9] was 100%, the pest or weed control at 80 g/ha [10] was 90% and the pest or weed control at 20 g/ha [25] was 80%. It also gave a pest or weed control at 20 g/ha [11] of 80%, a pest or weed control at 20 g/ha [12] of 100% and a pest or weed control at 80 g/ha [12] of 100%. It also gave a pest or weed control at 80 g/ha [26] of 90%, a pest or weed control at 5 g/ha [13] of 80% and a pest or weed control at 20 g/ha [13] of 90%. The pest or weed control at 20 g/ha [14] was 80%, the pest or weed control at 80 g/ha [14] was 100% and the pest or weed control at 20 g/ha [15] was 100%. The pest or weed control at 20 g/ha [16] was 100%, the pest or weed control at 80 g/ha [16] was 100% and the pest or weed control at 20 g/ha [17] was 100%. For the same compound, the pest or weed control at 80 g/ha [17] was 100%, the pest or weed control at 20 g/ha [18] was 100% and the pest or weed control at 80 g/ha [18] was 100%. The pest or weed control at 20 g/ha [19] was 80%, the pest or weed control at 20 g/ha [20] was 100% and the pest or weed control at 5 g/ha [20] was 80%. For the same compound, the pest or weed control at 80 g/ha [21] was 90%, the pest or weed control at 20 g/ha [21] was 80% and the pest or weed control at 5 g/ha [22] was 90%. It also gave a pest or weed control at 20 g/ha [22] of 90%, a pest or weed control at 80 g/ha [23] of 80% and a pest or weed control at 5 g/ha [24] of 100%. It also gave a pest or weed control at 20 g/ha [24] of 100%.
